Source: patent US11465998B2, “Therapeutic compounds and methods of use thereof” (Regents of the University of Minnesota, priority 2019, dated 2022)
“Also recorded” adds a separate entry of the source. Like-named read-outs stand apart in the source and are kept apart here.

Molecular target: T1, human NOD2 (Homo sapiens, UniProt Q9HC29)
T1 construct: host or cells: HEK293
Experiment: human NOD2 specific reporter gene assay (NF-κB induction)
Format: cell-based
Protocol: Example 5: High-throughput screens in porcine blood: Curated compound collections were obtained from the Institute for Therapeutics Discovery & Development at the University of Minnesota. Compound transfers from source (80 nL of 10 mM stocks) to assay plates were performed using an Echo 550 acoustic liquid handler (Labcyte, Sunnyvale, Calif.). For most libraries, a target final concentration of 10 μM of compound (in a final volume of 80 μL for the assay described below) was achieved. Compound plates were hermetically sealed and stored at −80° C. until used. Fresh, heparin-anticoagulated porcine blood from healthy animals were obtained under USDA supervision from Midwest Research Swine, LLC (Glencoe, Minn.). 80 μL of hematocrit-enriched porcine blood (low-speed centrifugation, followed by resuspension in DMEM supplemented with 10% fetal bovine serum) was added to compound plates and incubated for 15 h. The following day, the plates were briefly centrifuged (100 g, 10 min), and supernatants were transferred using an automated ViaFlow 384 transfer device (Integra Biosciences Corp., Hudson, N.H.) to assay plates containing of 10^6 cells/mL of each of the following NF-κB/secreted alkaline phosphatase reporter cells suspended in HEK-Blue Detection Media: human IFN-α/β, human IFN-γ, human TNF-α/IL-1β (InvivoGen, San Diego, Calif.). NF-κB translocation was assayed spectrophotometrically using an alkaline phosphatase-specific chromogen (present in HEK-detection medium as supplied by InvivoGen) at 620 nm using a SpectraMax M4 multimode microplate reader (Molecular Devices, Sunnyvale, Calif.). Z′ factors were computed for each TLR/NOD-specific signals. Hits were defined as signals >4σ (in-plate standard deviations for test compounds above negative control means), were deconvoluted in full dose-response assays in human TLR-2/-3/-4/-5/-7/-8/-9 and NOD-1/NOD-2-specific reporter cells in liquid handler-assisted assay formats as described previously. Example 6: Murine knockout cell-lines: The following reagents were obtained through BEI Resources, NIAID, NIH: the microglial cell line derived from MAL/MyD88 double knockout Mice (NR-9904), and the macrophage cell line derived from TRIF/TRAM knockout mice (NR-9568). Example 7: Human NOD1/2-specific reporter gene assays (NF-κB induction), and TLR-2/-3/-4/-5/-7/-8/-9/STING/ISG counter-screens: The induction of NF-κB was quantified using human TLR-2/-3/-4/-5/-7/-8/-9/NOD-1/NOD-2/STING/ISG-specific, rapid-throughput, liquid handler-assisted reporter gene assays as previously described by us (Wu, W. et al. J. Med. Chem. 2010, 53, 3198-3213; Shukla, N. M. et al. J. Med. Chem. 2010, 53, 4450-4465; Agnihotri, G. et al. J. Med. Chem. 2011, 54, 1490-1510 and Ukani, R. et al. Bioorg. Med. Chem. Lett. 2012, 22, 293-295). HEK293 cells stably co-transfected with the appropriate hTLR and secreted alkaline phosphatase (sAP) were maintained in HEK-Blue™ Selection medium. Stable expression of secreted alkaline phosphatase (sAP) under control of NF-κB/AP-1/IRF promoters is inducible by appropriate innate immune stimuli, and extracellular sAP in the supernatant is proportional to NF-κB/IRF induction. Reporter cells were incubated at a density of ˜10^5 cells/ml in a volume of 80 μl/well, in 384-well, flat-bottomed, cell culture-treated microtiter plates in the presence of graded concentrations of stimuli. sAP was assayed spectrophotometrically using an alkaline phosphatase-specific chromogen (present in HEK-detection medium as supplied by InvivoGen) at 620 nm. Example 8: Multiplexed immunoassays for human cytokines: Fresh human peripheral blood mononuclear cells (hPBMC) were isolated from human blood obtained by venipuncture in Cell Preparation Tubes (CPT, Beckton-Dickinson) with informed consent and as per guidelines approved by the University of Minnesota Human Subjects Experimentation Committee. Aliquots of PBMCs or THP-1 cells (10^5 cells in 100 μL/well) were stimulated for 16 h with graded concentrations of test compounds. […]

[1] = human NOD2 specific reporter gene assay, arithmetic mean of quadruplicate samples, NA* indicates inactive under the tested conditions, read-out: hNOD2 Agonistic Activity (μM), EC50

T1 sequence (Q9HC29 whole entry): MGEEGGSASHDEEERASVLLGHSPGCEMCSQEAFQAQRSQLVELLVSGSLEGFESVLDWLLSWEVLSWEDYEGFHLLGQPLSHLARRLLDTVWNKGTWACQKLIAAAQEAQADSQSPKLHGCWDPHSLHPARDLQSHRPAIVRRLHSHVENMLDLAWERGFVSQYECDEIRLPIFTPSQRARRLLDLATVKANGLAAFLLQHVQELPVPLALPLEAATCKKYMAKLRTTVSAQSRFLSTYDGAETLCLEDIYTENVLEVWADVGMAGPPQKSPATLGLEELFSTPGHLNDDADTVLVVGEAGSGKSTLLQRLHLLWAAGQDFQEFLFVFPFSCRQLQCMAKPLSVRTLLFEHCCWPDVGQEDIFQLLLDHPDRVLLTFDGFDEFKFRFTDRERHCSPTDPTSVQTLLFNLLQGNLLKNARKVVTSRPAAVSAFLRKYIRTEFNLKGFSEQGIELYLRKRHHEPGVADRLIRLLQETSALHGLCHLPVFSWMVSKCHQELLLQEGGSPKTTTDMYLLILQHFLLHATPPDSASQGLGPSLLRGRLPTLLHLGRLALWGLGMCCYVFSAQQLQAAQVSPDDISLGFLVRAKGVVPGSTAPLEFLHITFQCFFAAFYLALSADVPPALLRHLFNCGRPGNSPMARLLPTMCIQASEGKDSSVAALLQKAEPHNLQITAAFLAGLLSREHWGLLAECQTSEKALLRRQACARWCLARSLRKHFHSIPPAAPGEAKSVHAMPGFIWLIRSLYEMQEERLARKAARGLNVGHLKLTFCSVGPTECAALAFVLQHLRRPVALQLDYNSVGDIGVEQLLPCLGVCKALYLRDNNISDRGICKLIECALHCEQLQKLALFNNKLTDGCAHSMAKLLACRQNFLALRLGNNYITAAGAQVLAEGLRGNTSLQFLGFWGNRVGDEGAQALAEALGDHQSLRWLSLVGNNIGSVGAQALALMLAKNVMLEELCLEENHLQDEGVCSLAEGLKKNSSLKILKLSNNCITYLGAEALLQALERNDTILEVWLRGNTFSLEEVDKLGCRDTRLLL

| SMILES | hNOD2-agonistic activity (in words) (human NOD2 reporter gene assay) | EC50 [1] [µM] | EC50 (human NOD2 reporter gene assay, read-out: EC50 values, human NOD2 agonistic potency) [µM] |
| --- | --- | --- | --- |
| NCc1ccc(NC(=O)c2cc(-n3cnc4ccccc43)cs2)cc1 [Compound 2n, N-(4-(Aminomethyl)phenyl)-4-(1H-benzo[d]imidazol-1-yl)thiophene-2-carboxamide] | inactive | – | – |
| CNC(=O)c1cc(-n2cnc3ccccc32)cs1 [Compound 2d, 4-(1H-Benzo[d]imidazol-1-yl)-N-methylthiophene-2-carboxamide] | inactive | – | – |
| O=C(NO)c1cc(-n2cnc3ccccc32)cs1 [Compound 2c, 4-(1H-Benzo[d]imidazol-1-yl)-N-hydroxythiophene-2-carboxamide] | inactive | – | – |
| O=C(NNc1ccccc1)c1cc(-n2cnc3ccccc32)cs1 [Compound 2h, 4-(1H-Benzo[d]imidazol-1-yl)-N′-phenylthiophene-2-carbohydrazide] | inactive | – | – |
| O=C(NCc1ccccc1)c1cc(-n2cnc3ccccc32)cs1 [Compound 2g, 4-(1H-Benzo[d]imidazol-1-yl)-N-benzylthiophene-2-carboxamide] | inactive | – | – |
| NC(=O)c1cc(-n2cnc3ccccc32)cs1 [Compound 2a, 4-(1H-Benzo[d]imidazol-1-yl)thiophene-2-carboxamide] | Weak hNOD2-agonistic activity | – | 7.26 |
| NC(=O)c1nc(-n2cnc3ccccc32)cs1 [Compound 3f, 4-(1H-Benzo[d]imidazol-1-yl)thiazole-2-carboxamide] | inactive; also recorded: devoid of activity | – | – |
| NNC(=O)c1cc(-n2cnc3ccccc32)cs1 [Compound 2b, 4-(1H-Benzo[d]imidazol-1-yl)thiophene-2-carbohydrazide] | inactive | – | – |
| O=C(Nc1ccccc1)c1cc(-n2cnc3ccccc32)cs1 [Compound 2f, 4-(1H-Benzo[d]imidazol-1-yl)-N-phenylthiophene-2-carboxamide] | inactive | – | – |
| CCCCCc1nc2ccccc2n1-c1csc(C(N)=O)n1 [Compound 14, 4-(2-Pentyl-1H-benzo[d]imidazol-1-yl)thiazole-2-carboxamide] | weakly active | 7.39 | – |
| CC(C)CCc1nc2ccccc2n1-c1csc(C(N)=O)c1 [Compound 7m, 4-(2-Isopentyl-1H-benzo[d]imidazol-1-yl)thiophene-2-carboxamide] | potencies very similar to the butyl analogue (7d) | 2.91 | – |
| CCCCNC(=O)c1cc(-n2cnc3ccccc32)cs1 [Compound 2e, 4-(1H-Benzo[d]imidazol-1-yl)-N-butylthiophene-2-carboxamide] | inactive | – | – |
| O=C(Nc1ccncc1)c1cc(-n2cnc3ccccc32)cs1 [Compound 2i, 4-(1H-Benzo[d]imidazol-1-yl)-N-(pyridin-4-yl)thiophene-2-carboxamide] | inactive | – | – |

The next lines start with the values.

| hNOD2-agonistic activity (in words) (human NOD2 reporter gene assay) | EC50 [1] [µM] | EC50 (human NOD2 reporter gene assay, read-out: EC50 values, human NOD2 agonistic potency) [µM] | SMILES |
| --- | --- | --- | --- |
| inactive | – | – | NC(=O)c1cc(-n2cnc3c(N)nccc32)cs1 [Compound 19a, 4-(4-Amino-1H-imidazo[4,5-c]pyridin-1-yl)thiophene-2-carboxamide] |
| devoid of activity | – | – | NC(=O)c1cncc(-n2cnc3ccccc32)c1 [Compound 3l, 5-(1H-Benzo[d]imidazol-1-yl)nicotinamide] |
| devoid of activity | – | – | NC(=O)c1cnc(-n2cnc3ccccc32)s1 [Compound 3i, 2-(1H-Benzo[d]imidazol-1-yl)thiazole-5-carboxamide] |
| inactive | – | – | NC(=O)c1cscc1-n1cnc2ccccc21 [Compound 3b, 4-(1H-Benzo[d]imidazol-1-yl)thiophene-3-carboxamide] |
| inactive | – | – | NC(=O)c1cc(-n2cnc3cnccc32)cs1 [Compound 18a, 4-(1H-Imidazo[4,5-c]pyridin-1-yl)thiophene-2-carboxamide] |
| devoid of activity | – | – | NC(=O)c1ccc(-n2cnc3ccccc32)cc1 [Compound 3j, 4-(1H-Benzo[d]imidazol-1-yl)benzamide] |
| weakly active | 4.08 | – | CCCCc1nc2c(N)nccc2n1-c1csc(C(N)=O)c1 [Compound 19b, 4-(4-Amino-2-butyl-1H-imidazo[4,5-c]pyridin-1-yl)thiophene-2-carboxamide] |
| inactive | – | – | NC(=O)c1sccc1-n1cnc2ccccc21 [Compound 3c, 3-(1H-Benzo[d]imidazol-1-yl)thiophene-2-carboxamide] |
| devoid of activity | – | – | NC(=O)c1cc(-n2cnc3ccccc32)c[nH]1 [Compound 3d, 4-(1H-Benzo[d]imidazol-1-yl)-1H-pyrrole-2-carboxamide] |
| devoid of activity | – | – | NC(=O)c1csc(-n2cnc3ccccc32)n1 [Compound 3h, 2-(1H-Benzo[d]imidazol-1-yl)thiazole-4-carboxamide] |
| lower potency than the hit compound | 15.7 | – | Cc1nc2ccccc2n1-c1csc(C(N)=O)c1 [Compound 7a, 4-(2-Methyl-1H-benzo[d]imidazol-1-yl)thiophene-2-carboxamide] |
| – | 2.07 | – | CCCCc1nc2ccccc2n1-c1csc(C(N)=O)c1 [Compound 7d, 4-(2-Butyl-1H-benzo[d]imidazol-1-yl)thiophene-2-carboxamide] |
| – | 5.81 | – | CCCCCCCCCCCc1nc2ccccc2n1-c1csc(C(N)=O)c1 [Compound 7i, 4-(2-Undecyl-1H-benzo[d]imidazol-1-yl)thiophene-2-carboxamide] |
| weak activity | 1.84 | – | CCCCCc1nc2ccccc2n1-c1csc(C(=O)NO)c1 [Compound 11b, N-Hydroxy-4-(2-pentyl-1H-benzo[d]imidazol-1-yl)thiophene-2-carboxamide] |
| weak activity | 6.57 | – | CCCCCc1nc2ccccc2n1-c1csc(C(=N)N)c1 [Compound 13b, 4-(2-Pentyl-1H-benzo[d]imidazol-1-yl)thiophene-2-carboximidamide] |
| – | 2.2 | – | CCCCCCCCc1nc2ccccc2n1-c1csc(C(N)=O)c1 [Compound 7g, 4-(2-Octyl-1H-benzo[d]imidazol-1-yl)thiophene-2-carboxamide] |
| – | 3.06 | – | CCCCCCCCCc1nc2ccccc2n1-c1csc(C(N)=O)c1 [Compound 7h, 4-(2-Nonyl-1H-benzo[d]imidazol-1-yl)thiophene-2-carboxamide] |
| weakly active | 5.65 | – | CCCCc1nc2cnccc2n1-c1csc(C(N)=O)c1 [Compound 18b, 4-(2-Butyl-1H-imidazo[4,5-c]pyridin-1-yl)thiophene-2-carboxamide] |
| weak activity | 7.02 | – | CCCCCc1nc2ccccc2n1-c1csc(C(=O)NC)c1 [Compound 11c, N-Methyl-4-(2-pentyl-1H-benzo[d]imidazol-1-yl)thiophene-2-carboxamide] |
| inactive | – | – | N=C(NO)c1cc(-n2cnc3ccccc32)cs1 [Compound 4b, 4-(1H-Benzo[d]imidazol-1-yl)-N-hydroxythiophene-2-carboximidamide] |
